# What was measured:
# ETEC = assay: Agar diffusion growth inhibition zone, ETEC; assay type: cell-based, Enterotoxigenic E. coli; conditions: for inhibition of growth: ETEC; for zone of inhibition at 100000 µg/disc / zone of inhibition at 150000 µg/disc: Escherichia coli
# Procedure: (§7) Agar well diffusion method is widely used to evaluate the antimicrobial activity of plants or other synthetic products. The suspension (microbial inoculum) was used to inoculate into Muller Hinton Agar Petri plates by lawn culture. Well (diameter 6 mm) were punched in the agar by sterile borer and filled with 50 μl of dissolved extracts. Plates were incubated in incubator at 37° C. for 24 hours and measured the growth inhibition zone diameters in mm compared with that of control (DMSO) showing no growth. The antimicrobial agent diffuses in the agar medium and inhibits the growth of the microbial strain tested (Valgas et al., (2016) Methods for in vitro evaluating antimicrobial activity: A review. Journal of Pharmaceutical Analysis. 6(2):71-9).
# (§8) Similar to the procedure used in Agar well diffusion method, the suspension (microbial inoculum) was used to inoculate into Muller Hinton Agar Petri plates by lawn culture. Then, filter paper discs (about 6 mm in diameter), containing the test compound at a desired concentration, were placed on the agar surface. The Petri dishes were incubated under suitable incubation conditions. Generally, antimicrobial agent diffuses into the agar and inhibits germination and growth of the test microorganism and then the diameters of inhibition growth zones are measured (Valgas et al., (2007) Screening methods to determine antibacterial activity of natural products. Brazilian Journal of Microbiology. 38:369-80; Balouiri M et al., (2016) Methods for in vitro evaluating antimicrobial activity: A review. Journal of Pharmaceutical Analysis. 6(2):71-9).
# Citrobacter sp. = assay: Agar diffusion growth inhibition zone, Citrobacter sp.; assay type: cell-based, Citrobacter species; conditions: 6 mm = no activity
# Procedure: (§1) Among the bacterial agents tested Gram positive and Gram negative bacterial groups represented by Staphylococcus aureus and Enterococcus species and pathogenic members of Enterobacteriaceae, Vibronaceae, Aeromonadaceae, Pseudomonadaceae were tested. Freshly sub-cultured bacterial strains were inoculated into peptone water and incubated for 4 hours at 37° C. and adjusted to a turbidity of 0.5 (Gram Negative Bacilli), 1 (Gram Positive Cocci) and 4 (Pus cells, GNB, & few Budding yeast cells) Mc Farland standards (10^8 CFU/ml) respectively.
# (§2) The different bioactive compounds and their derivatives were dissolved and diluted with solvents (DMSO), number of subsequent dilutions was performed to obtain different concentrations of the bioactive compounds and their derivatives. (Working Concentrations).
# (§3) Agar well diffusion method is widely used to evaluate the antimicrobial activity of plants or other synthetic products. The suspension (microbial inoculum) was used to inoculate into Muller Hinton Agar Petri plates by lawn culture. Well (diameter 6 mm) were punched in the agar by sterile borer and filled with 50 μl of dissolved extracts. Plates were incubated in incubator at 37° C. for 24 hours and measured the growth inhibition zone diameters in mm compared with that of control (DMSO) showing no growth.
# (§4) The bioactive compounds were tested with desired concentrations in 6 mm filter paper discs (Whatman, no. 3) were impregnated with 10 μL of each of the different dilutions. The discs were allowed to remain at room temperature until complete diluent evaporation and kept under refrigeration until ready to be used. 10 μL of diluents used to products were used as control. Tests were performed by Agar disk-diffusion testing method, which is the official method used in many clinical microbiology laboratories for routine antimicrobial susceptibility testing.
# (§5) Similar to the procedure used in Agar well diffusion method, the suspension (microbial inoculum) was used to inoculate into Muller Hinton Agar Petri plates by lawn culture. Then, filter paper discs (about 6 mm in diameter), containing the test compound at a desired concentration, were placed on the agar surface. The Petri dishes were incubated under suitable incubation conditions.
# (§6) Bioactive compounds showing zone of inhibition beyond the size of 6 mm are considered to be having an anti-microbial activity.
# Enterococcus sp. = assay: Agar diffusion growth inhibition zone, Enterococcus sp.; assay type: cell-based, Enterococcus species; conditions: 6 mm = no activity
# Procedure: as §1, §2, §3, §4, §5, §6
# Klebsiella sp. = assay: Agar diffusion growth inhibition zone, Klebsiella sp.; assay type: cell-based, Klebsiella species; conditions: 6 mm = no activity
# Procedure: as §1, §2, §3, §4, §5, §6
# Aeromonas sp. = assay: Agar diffusion growth inhibition zone, Aeromonas sp.; assay type: cell-based, Aeromonas species; conditions: Aeromonas sp., 6 mm = no activity
# Procedure: as §1, §2, §3, §4, §5, §6
# E. coli ATCC 25922 = assay: Agar diffusion growth inhibition zone, E. coli ATCC 25922; assay type: cell-based; conditions: Escherichia coli, 6 mm = no activity; for zone of inhibition at 100 mg/mL: ATCC25922, 100 mg; for zone of inhibition at 150 mg/mL: ATCC25922, 150 mg
# Procedure: as §1, §2, §3, §4, §5, §6
# Shigella sp. = assay: Agar diffusion growth inhibition zone, Shigella sp.; assay type: cell-based, Shigella species; conditions: Shigella
# Procedure: as §7, §8
# Salmonella typhimurium = assay: Agar diffusion growth inhibition zone, Salmonella typhimurium; assay type: cell-based; conditions: Salmonella enterica, 6 mm = no activity
# Procedure: as §1, §2, §3, §4, §5, §6
# S. aureus = assay: Agar diffusion growth inhibition zone, S. aureus; assay type: cell-based, Staphylococcus aureus; conditions: Staphylococcus aureus, 6 mm = no activity
# Procedure: as §1, §2, §3, §4, §5, §6
# Vibrio cholera = assay: Agar diffusion growth inhibition zone, Vibrio cholera; assay type: cell-based, Vibrio cholerae; conditions: Vibrio cholerae
# Procedure: as §7, §8
# EAEC = assay: Agar diffusion growth inhibition zone, EAEC; assay type: cell-based, Enteroaggregative E. coli; conditions: for zone of inhibition at 100 mg/mL / zone of inhibition at 150 mg/mL: Escherichia coli, 6 mm = no activity
# Procedure: as §1, §2, §3, §4, §5, §6
# Candida abicans = assay: Agar diffusion growth inhibition zone, Candida abicans; assay type: cell-based, Candida albicans; conditions: 6 mm = no activity
# Procedure: as §1, §2, §3, §4, §5, §6
# Pseudomonas sp. = assay: Agar diffusion growth inhibition zone, Pseudomonas sp.; assay type: cell-based, Pseudomonas species; conditions: Pseudomonas
# Procedure: as §7, §8
# Proteus sp. = assay: Agar diffusion growth inhibition zone, Proteus sp.; assay type: cell-based, Proteus species; conditions: Proteus sp.; 150 mg; 6 mm = no activity
# Procedure: as §1, §2, §3, §4, §5, §6
# Pleisiomonas sp. = assay: Agar diffusion growth inhibition zone, Pleisiomonas sp.; assay type: cell-based, Pleisiomonas species; conditions: Pleisiomonas sp., 6 mm = no activity
# Procedure: as §1, §2, §3, §4, §5, §6
smiles,measurement,setting,value
"COc1cc(/C=C/C(=O)COC(=O)/C=C/c2ccc(O)c(OC)c2)ccc1O [compound 5, Calebin-A]",inhibition of growth,ETEC,significantly inhibited the growth
same,zone of inhibition at 100000 µg/disc,ETEC,11 mm
same,zone of inhibition at 150000 µg/disc,ETEC,11 mm
same,zone of inhibition at 100 mg/mL,Citrobacter sp.,6 mm
same,zone of inhibition at 150 mg/mL,Citrobacter sp.,6 mm
same,zone of inhibition at 100 mg/mL,Enterococcus sp.,6 mm
same,zone of inhibition at 150 mg/mL,Enterococcus sp.,6 mm
same,zone of inhibition at 100 mg/mL,Klebsiella sp.,6 mm
same,zone of inhibition at 150 mg/mL,Klebsiella sp.,6 mm
same,zone of inhibition at 100 mg/mL,Aeromonas sp.,6 mm
same,zone of inhibition at 150 mg/mL,Aeromonas sp.,6 mm
same,zone of inhibition at 100 mg/mL,E. coli ATCC 25922,6 mm
same,zone of inhibition at 150 mg/mL,E. coli ATCC 25922,6 mm
same,zone of inhibition at 100000 µg/disc,Shigella sp.,6 mm
same,zone of inhibition at 150000 µg/disc,Shigella sp.,6 mm
same,zone of inhibition at 100 mg/mL,Salmonella typhimurium,6 mm
same,zone of inhibition at 150 mg/mL,Salmonella typhimurium,6 mm
same,zone of inhibition at 100 mg/mL,S. aureus,6 mm
same,zone of inhibition at 150 mg/mL,S. aureus,6 mm
same,zone of inhibition at 100000 µg/disc,Vibrio cholera,6 mm
same,zone of inhibition at 150000 µg/disc,Vibrio cholera,6 mm
same,inhibition of growth,EAEC,inhibited
same,zone of inhibition at 100 mg/mL,EAEC,7 mm
same,zone of inhibition at 150 mg/mL,EAEC,7 mm
same,zone of inhibition at 100 mg/mL,Candida abicans,6 mm
same,zone of inhibition at 150 mg/mL,Candida abicans,6 mm
same,zone of inhibition at 100000 µg/disc,Pseudomonas sp.,6 mm
same,zone of inhibition at 150000 µg/disc,Pseudomonas sp.,6 mm
same,zone of inhibition at 150 mg/mL,Proteus sp.,6 mm
same,zone of inhibition at 100 mg/mL,Pleisiomonas sp.,6 mm
same,zone of inhibition at 150 mg/mL,Pleisiomonas sp.,6 mm
"COc1cc(/C=C/C(=O)COC(=O)/C=C/c2ccc(OC(C)=O)c(OC)c2)ccc1OC(C)=O [compound 6, O,O′- Diacetylcalebin-A]",inhibition of growth,ETEC,significantly inhibited the growth
same,zone of inhibition at 100000 µg/disc,ETEC,8 mm
same,zone of inhibition at 150000 µg/disc,ETEC,8 mm
same,zone of inhibition at 100 mg/mL,Citrobacter sp.,6 mm
same,zone of inhibition at 150 mg/mL,Citrobacter sp.,6 mm
same,zone of inhibition at 100 mg/mL,Enterococcus sp.,6 mm
same,zone of inhibition at 150 mg/mL,Enterococcus sp.,6 mm
same,zone of inhibition at 100 mg/mL,Klebsiella sp.,6 mm
same,zone of inhibition at 150 mg/mL,Klebsiella sp.,6 mm
same,zone of inhibition at 100 mg/mL,Aeromonas sp.,6 mm
same,zone of inhibition at 150 mg/mL,Aeromonas sp.,6 mm
same,zone of inhibition at 100 mg/mL,E. coli ATCC 25922,6 mm
same,zone of inhibition at 150 mg/mL,E. coli ATCC 25922,6 mm
same,zone of inhibition at 100000 µg/disc,Shigella sp.,6 mm
same,zone of inhibition at 150000 µg/disc,Shigella sp.,6 mm
same,zone of inhibition at 100 mg/mL,Salmonella typhimurium,6 mm
same,zone of inhibition at 150 mg/mL,Salmonella typhimurium,6 mm
same,zone of inhibition at 100 mg/mL,S. aureus,6 mm
same,zone of inhibition at 150 mg/mL,S. aureus,6 mm
same,zone of inhibition at 100000 µg/disc,Vibrio cholera,6 mm
same,zone of inhibition at 150000 µg/disc,Vibrio cholera,6 mm
same,inhibition of growth,EAEC,inhibited
same,zone of inhibition at 100 mg/mL,EAEC,7 mm
same,zone of inhibition at 150 mg/mL,EAEC,7 mm
same,zone of inhibition at 100 mg/mL,Candida abicans,6 mm
same,zone of inhibition at 150 mg/mL,Candida abicans,6 mm
same,zone of inhibition at 100000 µg/disc,Pseudomonas sp.,6 mm
same,zone of inhibition at 150000 µg/disc,Pseudomonas sp.,6 mm
same,zone of inhibition at 150 mg/mL,Proteus sp.,6 mm
same,zone of inhibition at 100 mg/mL,Pleisiomonas sp.,6 mm
same,zone of inhibition at 150 mg/mL,Pleisiomonas sp.,6 mm
